Active and inactive are the calls of the source. The calls are words filed in the database; no cut-off is given here.
Legend:
[1] = target: T1, Muscarinic acetylcholine receptor M4 (Homo sapiens, UniProt P08173); experiment: Positive allosteric modulation of human M4 receptor/Gqi5 in presence of EC20 acetylcholine by calcium mobilization assay; type: functional
T1 sequence (P08173 whole entry): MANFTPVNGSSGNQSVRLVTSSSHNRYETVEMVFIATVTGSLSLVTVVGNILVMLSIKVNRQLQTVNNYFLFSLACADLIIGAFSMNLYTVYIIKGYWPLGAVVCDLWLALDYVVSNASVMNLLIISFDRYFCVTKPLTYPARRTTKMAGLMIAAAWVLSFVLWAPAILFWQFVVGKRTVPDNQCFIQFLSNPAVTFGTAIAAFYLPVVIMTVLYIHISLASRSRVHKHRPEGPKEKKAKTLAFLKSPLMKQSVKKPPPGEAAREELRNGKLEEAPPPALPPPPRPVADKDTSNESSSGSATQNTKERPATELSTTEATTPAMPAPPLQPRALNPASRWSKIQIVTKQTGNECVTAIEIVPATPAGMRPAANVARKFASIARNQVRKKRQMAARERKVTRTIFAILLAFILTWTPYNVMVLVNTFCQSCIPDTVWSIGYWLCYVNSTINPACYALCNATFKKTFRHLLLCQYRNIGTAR

[2] = target: T2, Muscarinic acetylcholine receptor M4 (Homo sapiens) (UniProt P08173); experiment: Positive allosteric modulation of human M4 receptor/Gqi5 in presence of EC20 acetylcholine by calcium mobilization assay relative to acetylcholine; type: functional; conditions: filed as positive allosteric modulator
T2 sequence (whole entry): T1 sequence (P08173 whole entry)

[3] = target: T3, Muscarinic acetylcholine receptor M2 (Homo sapiens, UniProt P08172); experiment: Positive allosteric modulation of human M2 receptor/Gqi5 in presence of EC20 acetylcholine by calcium mobilization assay
T3 sequence (P08172 whole entry): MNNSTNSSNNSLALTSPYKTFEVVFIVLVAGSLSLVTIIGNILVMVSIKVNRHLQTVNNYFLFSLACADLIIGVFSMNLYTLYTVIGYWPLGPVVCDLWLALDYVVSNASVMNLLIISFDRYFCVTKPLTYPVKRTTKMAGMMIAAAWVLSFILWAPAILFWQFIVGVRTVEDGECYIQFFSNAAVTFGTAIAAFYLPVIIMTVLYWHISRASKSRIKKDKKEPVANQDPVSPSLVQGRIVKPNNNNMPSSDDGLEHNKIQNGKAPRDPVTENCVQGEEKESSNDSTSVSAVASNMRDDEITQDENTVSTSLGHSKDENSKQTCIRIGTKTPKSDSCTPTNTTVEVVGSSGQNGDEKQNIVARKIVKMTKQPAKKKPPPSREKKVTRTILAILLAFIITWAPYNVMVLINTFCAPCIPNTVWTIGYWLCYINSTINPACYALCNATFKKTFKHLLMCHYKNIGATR

[4] = target: T4, Muscarinic acetylcholine receptor M1 (Homo sapiens) (UniProt P11229); experiment: Positive allosteric modulation of human M1 receptor
T4 sequence (whole entry): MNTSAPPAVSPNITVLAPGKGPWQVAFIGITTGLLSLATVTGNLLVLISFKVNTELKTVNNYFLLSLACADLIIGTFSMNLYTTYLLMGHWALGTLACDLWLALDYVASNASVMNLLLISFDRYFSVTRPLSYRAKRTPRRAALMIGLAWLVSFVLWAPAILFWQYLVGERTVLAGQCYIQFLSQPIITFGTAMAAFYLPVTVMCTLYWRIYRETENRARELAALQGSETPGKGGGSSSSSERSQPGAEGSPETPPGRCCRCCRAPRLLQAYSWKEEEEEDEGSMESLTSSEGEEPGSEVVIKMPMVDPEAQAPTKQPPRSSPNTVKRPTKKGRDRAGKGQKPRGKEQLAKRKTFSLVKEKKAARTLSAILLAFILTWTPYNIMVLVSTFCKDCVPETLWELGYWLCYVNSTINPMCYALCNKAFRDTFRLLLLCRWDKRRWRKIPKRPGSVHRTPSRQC

[5] = target: Muscarinic acetylcholine receptor M3 (Homo sapiens, UniProt P20309); experiment: Positive allosteric modulation of human M3 receptor
[6] = target: T5, Muscarinic acetylcholine receptor M5 (Homo sapiens) (UniProt P08912); experiment: Positive allosteric modulation of human M5 receptor
T5 sequence (whole entry): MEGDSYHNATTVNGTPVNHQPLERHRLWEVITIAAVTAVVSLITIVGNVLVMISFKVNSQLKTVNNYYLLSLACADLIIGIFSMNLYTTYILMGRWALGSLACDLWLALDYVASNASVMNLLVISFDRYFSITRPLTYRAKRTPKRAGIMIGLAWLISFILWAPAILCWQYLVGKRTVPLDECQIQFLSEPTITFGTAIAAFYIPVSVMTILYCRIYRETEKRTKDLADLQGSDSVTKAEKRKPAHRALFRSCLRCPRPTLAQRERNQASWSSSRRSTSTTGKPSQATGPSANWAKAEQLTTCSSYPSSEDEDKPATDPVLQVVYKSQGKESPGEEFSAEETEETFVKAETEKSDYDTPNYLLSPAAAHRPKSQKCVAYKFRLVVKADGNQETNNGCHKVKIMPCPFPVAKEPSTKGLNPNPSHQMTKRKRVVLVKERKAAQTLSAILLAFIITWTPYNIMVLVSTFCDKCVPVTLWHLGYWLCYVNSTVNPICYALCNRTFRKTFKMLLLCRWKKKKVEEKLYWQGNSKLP

[7] = Hepatic clearance in rat; type: ADME; conditions: in vivo
[8] = Hepatic clearance in human; type: ADME
[9] = Fraction unbound in rat plasma; type: ADME, cell-free
[10] = Fraction unbound in human plasma; type: ADME, cell-free
[11] = Fraction unbound in rat brain; type: ADME, tissue-based
[12] = Brain to plasma permeability coefficient, Kp in Sprague-Dawley rat at 0.1 to 0.2 mg/kg, iv measured after 0.25 hrs; type: ADME, organism-based; conditions: dose 0.1-0.2 mg/kg
[13] = Unbound brain-to-plasma concentration ratio in Sprague-Dawley rat at 0.1 to 0.2 mg/kg, iv measured after 0.25 hrs; type: ADME, organism-based; conditions: dose 0.1-0.2 mg/kg, read-out: K(p,uu,brain)
[14] = target: T3, Muscarinic acetylcholine receptor M2; experiment: Positive allosteric modulation of human M2 receptor/Gqi5 in presence of EC20 acetylcholine by calcium mobilization assay relative to acetylcholine; conditions: read-out: %max

Chain of Muscarinic acetylcholine receptor M3 (P20309 whole entry, looked up): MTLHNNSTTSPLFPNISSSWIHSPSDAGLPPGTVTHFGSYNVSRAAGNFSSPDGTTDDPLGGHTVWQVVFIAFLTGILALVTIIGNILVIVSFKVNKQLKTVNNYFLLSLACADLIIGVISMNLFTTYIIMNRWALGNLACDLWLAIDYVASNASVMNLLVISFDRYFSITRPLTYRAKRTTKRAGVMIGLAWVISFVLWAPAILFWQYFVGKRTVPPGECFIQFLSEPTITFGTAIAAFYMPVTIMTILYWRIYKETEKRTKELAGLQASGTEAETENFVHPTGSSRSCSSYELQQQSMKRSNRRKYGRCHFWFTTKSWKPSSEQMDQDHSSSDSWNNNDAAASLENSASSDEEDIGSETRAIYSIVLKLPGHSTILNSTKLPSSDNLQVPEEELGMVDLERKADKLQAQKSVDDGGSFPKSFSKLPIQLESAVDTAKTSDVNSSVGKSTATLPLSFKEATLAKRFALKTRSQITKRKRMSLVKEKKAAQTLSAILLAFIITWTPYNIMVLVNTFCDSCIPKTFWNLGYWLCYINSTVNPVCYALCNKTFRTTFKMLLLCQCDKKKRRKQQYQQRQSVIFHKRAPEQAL

Structure (SMILES)	EC50 [1]	%max [2]	EC50 [3]	Activity [4]	Activity [5]	Activity [6]	CLH [7]	CLH [8]	fraction unbound [9]	fraction unbound [10]	fraction unbound [11]	Kp at 0.25 h [12]	Kp uu at 0.25 h [13]	Emax [14]
Cc1c(CN(C)C)nnc2sc(C(=O)NC3CN(c4ncc(C(F)(F)F)cn4)C3)c(N)c12	> 30000 nM		> 30000 nM	inactive	inactive	inactive								
Cc1c(Cl)nnc2sc(C(=O)NC3CN(c4cnc(Cl)cn4)C3)c(N)c12	140 nM	99%	400 nM	inactive	inactive	inactive								40%
Cc1c(CO)nnc2sc(C(=O)NC3CN(c4ncc(C(F)(F)F)cn4)C3)c(N)c12	1170 nM	75%	> 30000 nM	inactive	inactive	inactive								
Cc1c(Cl)nnc2sc(C(=O)NC3CN(c4ccnc(F)c4Cl)C3)c(N)c12	70 nM	72%	> 30000 nM	inactive	inactive	inactive								
Cc1c(Cl)nnc2sc(C(=O)NC3CN(c4ncncc4C#N)C3)c(N)c12	220 nM	65%	> 30000 nM	inactive	inactive	inactive								
Cc1c(O)nnc2sc(C(=O)NC3Cc4ccccc4C3)c(N)c12	290 nM	71%												
Cc1c(Cl)nnc2sc(C(=O)NC3CN(c4nnc(CC(C)C)o4)C3)c(N)c12	230 nM	47%	> 10000 nM	inactive	inactive	inactive								62%
Cc1cc(C2CC2)ncc1N1CC(NC(=O)c2sc3nnc(Cl)c(C)c3c2N)C1	150 nM	90%	870 nM	inactive	inactive	inactive								33%
CCc1nnc2sc(C(=O)NC3CN(c4ncc(C(F)(F)F)cn4)C3)c(N)c2c1C	510 nM	77%	> 30000 nM	inactive	inactive	inactive								
Cc1c(Cl)nnc2sc(C(=O)NC3CN(c4ccc(C5CC5)nn4)C3)c(N)c12	120 nM	94%	> 5000 nM	inactive	inactive	inactive								43%
Cc1cnnc2sc(C(=O)NC3Cc4ccccc4C3)c(N)c12	60 nM	81%												
Cc1c(O)nnc2sc(C(=O)NC3CN(c4ncc(C(F)(F)F)cn4)C3)c(N)c12	6720 nM	45%	> 30000 nM	inactive	inactive	inactive								
Cc1c(C(C)C)nnc2sc(C(=O)NC3CN(c4ncc(C(F)(F)F)cn4)C3)c(N)c12	540 nM	56%	> 30000 nM	inactive	inactive	inactive								
COCCOc1nnc2sc(C(=O)NC3CN(c4ncc(C(F)(F)F)cn4)C3)c(N)c2c1C	180 nM	48%	> 30000 nM	inactive	inactive	inactive								
Cc1nc(Cl)c(C)c(N2CC(NC(=O)c3sc4nnc(Cl)c(C)c4c3N)C2)n1	100 nM	84%	> 30000 nM	inactive	inactive	inactive								
Cc1c(CF)nnc2sc(C(=O)NC3CN(c4ncc(C(F)(F)F)cn4)C3)c(N)c12	170 nM	73%	> 30000 nM	inactive	inactive	inactive	23.7 mL/min/kg	10.8 mL/min/kg	0.034	0.042	0.085	0.06	0.15	

Continued by falling EC50 [1], values first:

EC50 [1]	%max [2]	EC50 [3]	Activity [4]	Activity [5]	Activity [6]	CLH [7]	CLH [8]	fraction unbound [9]	fraction unbound [10]	fraction unbound [11]	Kp at 0.25 h [12]	Kp uu at 0.25 h [13]	Emax [14]	Structure (SMILES)
60 nM	78%	> 30000 nM	inactive	inactive	inactive	51.9 mL/min/kg		0.022	0.022	0.037	0.1	0.17		Cc1c(Cl)nnc2sc(C(=O)NC3CN(c4ncc(C(F)(F)F)cn4)C3)c(N)c12
30 nM	59%	> 30000 nM	inactive	inactive	inactive									Cc1c(Cl)nnc2sc(C(=O)NC3CN(c4cc(Cl)ncc4Cl)C3)c(N)c12
20 nM	83%													COc1nnc2sc(C(=O)NC3Cc4ccccc4C3)c(N)c2c1C
20 nM	90%	> 10000 nM	inactive	inactive	inactive	31.7 mL/min/kg	14.7 mL/min/kg	0.019	0.019	0.01	0.31	0.16	51%	Cc1c(Cl)nnc2sc(C(=O)NC3CN(c4cc(C(F)(F)F)ncc4Cl)C3)c(N)c12
20 nM	79%													Cc1nnc2sc(C(=O)NC3Cc4ccccc4C3)c(N)c2c1C
20 nM	86%	1100 nM	inactive	inactive	inactive								64%	Cc1c(Cl)nnc2sc(C(=O)NC3CN(c4cccnc4)C3)c(N)c12
10 nM	52%	> 30000 nM	inactive	inactive	inactive	15.3 mL/min/kg	11.7 mL/min/kg	0.005	< 0.001	0.01	0.21	0.42		COc1cc(N2CC(NC(=O)c3sc4nnc(Cl)c(C)c4c3N)C2)c(Cl)cn1
10 nM	73%													Cc1c(Cl)nnc2sc(C(=O)NC3Cc4ccccc4C3)c(N)c12
